Measurements as given in ChEMBL document CHEMBL1926642, “Relevance of the C-5 position to schweinfurthin induced cytotoxicity” (2011).

Legend:
Type in all cases: functional
MOLT-4 = assay: Growth inhibition of human MOLT4 cells after 48 hrs by sulforhodamine B assay; conditions: MOLT-4, 48 h
HOP-92 = assay: Growth inhibition of human HOP92 cells after 48 hrs by sulforhodamine B assay; conditions: HOP-92, 48 h
HT-29 = assay: Growth inhibition of human HT-29 cells after 48 hrs by sulforhodamine B assay; conditions: HT-29, 48 h
SF-539 = assay: Growth inhibition of human SF539 cells after 48 hrs by sulforhodamine B assay; conditions: SF-539, 48 h
SNB-19 = assay: Growth inhibition of human SNB19 cells after 48 hrs by sulforhodamine B assay; conditions: SNB-19, 48 h
LOX IMVI = assay: Growth inhibition of human LOXIMVI cells after 48 hrs by sulforhodamine B assay
Malme-3M = assay: Growth inhibition of human MALME-3M cells after 48 hrs by sulforhodamine B assay
M14 = assay: Growth inhibition of human M14 cells after 48 hrs by sulforhodamine B assay; conditions: M14, 48 h
MDA-MB-435 = assay: Growth inhibition of human MDA-MB-435 cells after 48 hrs by sulforhodamine B assay; conditions: MDA-MB-435, 48 h
SK-MEL-2 = assay: Growth inhibition of human SK-MEL-2 cells after 48 hrs by sulforhodamine B assay; conditions: SK-MEL-2, 48 h
SK-MEL-5 = assay: Growth inhibition of human SK-MEL-5 cells after 48 hrs by sulforhodamine B assay; conditions: SK-MEL-5, 48 h
UACC-257 = assay: Growth inhibition of human UACC257 cells after 48 hrs by sulforhodamine B assay; conditions: UACC-257, 48 h
UACC-62 = assay: Growth inhibition of human UACC62 cells after 48 hrs by sulforhodamine B assay; conditions: UACC-62, 48 h
IGROV-1 = assay: Growth inhibition of human IGROV1 cells after 48 hrs by sulforhodamine B assay; conditions: IGROV-1, 48 h
OVCAR-3 = assay: Growth inhibition of human OVCAR3 cells after 48 hrs by sulforhodamine B assay; conditions: OVCAR-3, 48 h
OVCAR-4 = assay: Growth inhibition of human OVCAR4 cells after 48 hrs by sulforhodamine B assay; conditions: OVCAR-4, 48 h
OVCAR-8 = assay: Growth inhibition of human OVCAR8 cells after 48 hrs by sulforhodamine B assay; conditions: OVCAR-8, 48 h
NCI/ADR-RES = assay: Growth inhibition of human NCI/ADR-RES cells after 48 hrs by sulforhodamine B assay
786-0 = assay: Growth inhibition of human 786-0 cells after 48 hrs by sulforhodamine B assay; conditions: 786-0, 48 h
A498 = assay: Growth inhibition of human A498 cells after 48 hrs by sulforhodamine B assay; conditions: A498, 48 h
CAKI-1 = assay: Growth inhibition of human Caki1 cells after 48 hrs by sulforhodamine B assay; conditions: CAKI-1, 48 h
SN12C = assay: Growth inhibition of human SN12C cells after 48 hrs by sulforhodamine B assay
TK-10 = assay: Growth inhibition of human TK10 cells after 48 hrs by sulforhodamine B assay; conditions: TK-10, 48 h
MCF7 = assay: Growth inhibition of human MCF7 cells after 48 hrs by sulforhodamine B assay; conditions: MCF7, 48 h
MDA-MB-231 = assay: Growth inhibition of human MDA-MB-231/ATCC cells after 48 hrs by sulforhodamine B assay; conditions: MDA-MB-231, 48 h
MDA-MB-468 = assay: Growth inhibition of human MDA-MB-468 cells after 48 hrs by sulforhodamine B assay; conditions: MDA-MB-468, 48 h
[1] = read-out: pLC50 (the source's name) (converted)

`COc1cc(/C=C/c2cc(F)c3c(c2)C[C@@H]2C(C)(C)[C@H](O)CC[C@@]2(C)O3)cc(O)c1C/C=C(\C)CCC=C(C)C` showed a GI50 (MOLT-4) of 2.04 µM, an LC50 (MOLT-4) greater than 100 µM and a TGI (MOLT-4; read-out: pTGI (converted)) of 6.46 µM. The GI50 (HOP-92) was 3.39 µM, the LC50 (HOP-92) was 57.5 µM and the TGI (HOP-92; read-out: pTGI (converted)) was 12.6 µM. It also gave a GI50 (HT-29) of 2.57 µM, an LC50 (concentration killing 50% of cells) (HT-29) of 41.7 µM and a TGI (HT-29; read-out: pTGI (converted)) of 11 µM. The GI50 (SF-539) was 3.89 µM, the LC50 (SF-539) was 43.7 µM and the TGI (SF-539; read-out: pTGI (converted)) was 14.1 µM. The GI50 (SNB-19) was 12.6 µM, the LC50 (SNB-19) was 55 µM and the TGI (SNB-19; read-out: pTGI (converted)) was 26.3 µM. For the same compound, the GI50 (LOX IMVI) was 1.38 µM, the LC50 (LOX IMVI) was 6.17 µM and the TGI (LOX IMVI; read-out: pTGI (converted)) was 2.88 µM. It also gave a GI50 (Malme-3M) of 14.8 µM, an LC50 (Malme-3M) of 89.1 µM and a TGI (Malme-3M; read-out: pTGI (converted)) of 36.3 µM. It also gave a GI50 (M14) of 12.9 µM, an LC50 (M14) of 57.5 µM and a TGI (M14; read-out: pTGI (converted)) of 26.9 µM. For the same compound, the GI50 (MDA-MB-435) was 13.2 µM, the LC50 (MDA-MB-435) was 63.1 µM and the TGI (MDA-MB-435; read-out: pTGI (converted)) was 28.8 µM. It also gave a GI50 (SK-MEL-2) of 15.5 µM, an LC50 (SK-MEL-2) of 75.9 µM and a TGI (SK-MEL-2; read-out: pTGI (converted)) of 33.9 µM. The GI50 (SK-MEL-5) was 7.08 µM, the LC50 (SK-MEL-5) was 44.7 µM and the TGI (SK-MEL-5; read-out: pTGI (converted)) was 20 µM. For the same compound, the GI50 (UACC-257) was 16.2 µM, the LC50 (UACC-257) was 93.3 µM and the TGI (UACC-257; read-out: pTGI (converted)) was 38.9 µM. It also gave a GI50 (UACC-62) of 14.1 µM, an LC50 (50% lethal concentration) (UACC-62) of 63.1 µM and a TGI (UACC-62; read-out: pTGI (converted)) of 29.5 µM. The GI50 (IGROV-1) was 2.95 µM, the LC50 (IGROV-1) was 53.7 µM and the TGI (IGROV-1; read-out: pTGI (converted)) was 7.94 µM. For the same compound, the GI50 (OVCAR-3) was 12 µM, the LC50 (OVCAR-3) was 58.9 µM and the TGI (OVCAR-3; read-out: pTGI (converted)) was 26.9 µM. For the same compound, the GI50 (OVCAR-4) was 12.6 µM, the LC50 (OVCAR-4) was greater than 100 µM and the TGI (OVCAR-4; read-out: pTGI (converted)) was 37.2 µM. It also gave a GI50 (OVCAR-8) of 4.37 µM, an LC50 (OVCAR-8) of 50.1 µM and a TGI (OVCAR-8; read-out: pTGI (converted)) of 16.2 µM. It also gave a GI50 (NCI/ADR-RES) of 3.89 µM, an LC50 (NCI/ADR-RES) of 50.1 µM and a TGI (NCI/ADR-RES; read-out: pTGI (converted)) of 14.1 µM. The GI50 (786-0) was 3.31 µM, the CC50 (786-0; [1]) was 38.9 µM and the TGI (786-0; read-out: pTGI (converted)) was 10.2 µM. The GI50 (A498) was 28.8 µM, the LC50 (A498) was greater than 100 µM and the TGI (A498; read-out: pTGI (converted)) was greater than 100 µM. It also gave a GI50 (CAKI-1) of 10.2 µM, an LC50 (CAKI-1) of 53.7 µM and a TGI (CAKI-1; read-out: pTGI (converted)) of 23.4 µM. The GI50 (SN12C) was 14.5 µM, the LC50 (SN12C) was greater than 100 µM and the TGI (SN12C; read-out: pTGI (converted)) was 39.8 µM. For the same compound, the GI50 (TK-10) was 15.8 µM, the LC50 (TK-10) was 67.6 µM and the TGI (TK-10; read-out: pTGI (converted)) was 32.4 µM. For the same compound, the GI50 (MCF7) was 13.8 µM, the LC50 (MCF7) was 64.6 µM and the TGI (MCF7; read-out: pTGI (converted)) was 30.2 µM. For the same compound, the GI50 (MDA-MB-231) was 6.61 µM, the CC50 (MDA-MB-231; [1]) was 97.7 µM and the TGI (MDA-MB-231; read-out: pTGI (converted)) was 26.9 µM. It also gave a GI50 (MDA-MB-468) of 6.61 µM, an LC50 (MDA-MB-468) of 45.7 µM and a TGI (MDA-MB-468; read-out: pTGI (converted)) of 20 µM.
